Measured values as given in patent US6858741B2, “Alkyl-dihalogenated phenyl-substituted ketoenols useful as pesticides and herbicides” (Bayer Aktiengesellschaft, priority 1995, dated 2005).

Experiments:
Format in all cases: in vivo
[1] = test system: green rice leafhopper (Nephotettix cincticeps); test: Nephotettix test; conditions: after 6 days; active compound concentration 0.1%; dipped rice seedlings
Procedure: [table] To produce a suitable preparation of active compound, 1 part by weight of active compound is mixed with the stated amount of solvent and the stated amount of emulsifier, and the concentrate is diluted with water to the desired concentration. Rice seedlings (Oryza sativa) are treated by being dipped into the preparation of active compound of the desired concentration and are infested with the green rice leafhopper (Nephotettix cincticeps) while the seedlings are still moist. After the specified period of time, the destruction in % is determined. 100% means that all the leafhoppers have been killed; 0% means that none of the leafhoppers have been killed.

[2] = test system: caterpillars of the diamond-back moth (Plutella maculipennis); test: Plutella test; conditions: after 7 days; active compound concentration 0.1%; dipped cabbage leaves
Procedure: [table] To produce a suitable preparation of active compound, 1 part by weight of active compound is mixed with the stated amount of solvent and the stated amount of emulsifier, and the concentrate is diluted with water to the desired concentration. Cabbage leaves (Brassica oleracea) are treated by being dipped into the preparation of active compound of the desired concentration and are infested with caterpillars of the diamond-back moth (Plutella maculipennis) while the leaves are still moist. After the specified period of time, the destruction in % is determined. 100% means that all the caterpillars have been killed; 0% means that none of the caterpillars have been killed.

[3] = test system: mustard beetle larvae (Phaedon cochleariae); test: Phaedon larvae test; conditions: after 7 days; active compound concentration 0.1%; dipped cabbage leaves
Procedure: [table] To produce a suitable preparation of active compound, 1 part by weight of active compound is mixed with the stated amount of solvent and the stated amount of emulsifier, and the concentrate is diluted with water to the desired concentration. Cabbage leaves (Brassica oleracea) are treated by being dipped into the preparation of the active compound of the desired concentration and are infested with mustard beetle larvae (Phaedon cochleariae) while the leaves are still moist. After the specified period of time, the destruction in % is determined. 100% means that all the beetle larvae have been killed; 0% means that none of the beetle larvae have been killed.

test plants = test: Pre-emergence test/greenhouse; conditions: greenhouse, 250 g/ha, rated after three weeks vs untreated control, 0%=no action, 100%=total destruction
Procedure: [table] To produce a suitable preparation of active compound, 1 part by weight of active compound is mixed with the stated amount of solvent, the stated amount of emulsifier is added and the concentrate is diluted with water to the desired concentration. Seeds of the test plants are sown in normal soil and, after 24 hours, watered with the preparation of the active compound. It is expedient to keep constant the amount of water per unit area The concentration of the active compound in the preparation is of no importance, only the amount of active compound applied per unit area being decisive. After three weeks, the degree of damage to the plants is rated in % damage in comparison to the development of the untreated control. The figures denote: • 0%=no action (like untreated control) 100%=total destruction [table]

[4] = test system: greenhouse red spider mite or two-spotted spider-mite (Tetranychus urticae); test: Tetranychus test (OP-resistant/immersion treatment); conditions: after 13 days; active compound concentration 0.1%; immersion treatment of bean plants
Procedure: [table] To produce a suitable preparation of active compound, 1 part by weight of active compound is mixed with the stated amount of solvent and the stated amount of emulsifier, and the concentrate is diluted with water to the desired concentrations. Bean plants (Phaseolus vulgaris) which are severely infested with all development stages of the greenhouse red spider mite or two-spotted spider-mite (Tetranychus urticae) are immersed in a preparation of active compound of the desired concentration. After the specified period of time, the destruction in % is determined. 100% means that all the spider mites have been killed; 0% means that none of the spider mites have been killed.

Row | Structure (SMILES) | destruction [1] [%] | destruction [2] [%] | destruction [3] [%] | degree of damage, Alopecurus myosuroides (test plants) [%] | degree of damage, Avena fatua (test plants) [%] | degree of damage, Beta vulgaris (test plants) [%] | degree of damage, Setaria viridis (test plants) [%] | degree of damage, Sinapis arvensis (test plants) [%] | activity (destruction) [4] [%] | degree of damage, Amaranthus (test plants) [%]
1 | Cc1cc(Cl)cc(Cl)c1C1=C(OC(=O)OCC(C)C)C2(CCC(C)CC2)NC1=O (single isomer, unassigned) [Example I-1-c-13] | 100 |  |  |  |  |  |  |  |  | 
2 | CCC1(C)SC(=O)C(c2c(C)cc(Cl)cc2Cl)=C1O (centres unmarked) [Example I-3-a-1] |  | 100 | 100 |  |  |  |  |  |  | 
3 | Cc1cc(Cl)cc(Cl)c1C1=C(OC(=O)C(C)C)C2(CCCCC2)NC1=O [Example I-1-b-8] |  |  |  | 95 | 50 | 0 | 100 | 100 |  | 
4 | CCOC(=O)OC1=C(c2c(Cl)cc(C)cc2Cl)C(=O)NC12CCCC(C)C2 (single isomer, unassigned) [Example I-1-c-7] |  |  |  | 100 | 80 | 0 | 100 | 80 |  | 
5 | Cc1cc(Cl)c(C2=C(O)C3(CCCCC3)NC2=O)c(Cl)c1 [Example I-1-a-9] | 100 |  | 100 |  |  |  |  |  |  | 
6 | Cc1cc(Cl)c(C2=C(O)C3(CCCC(C)C3)NC2=O)c(Cl)c1 (single isomer, unassigned) [Example I-1-a-8] | 100 |  | 100 | 100 | 40 |  | 100 | 100 |  | 
7 | Cc1cc(Cl)c(C2=C(O)C3(CCC(C)CC3)NC2=O)c(Cl)c1 (single isomer, unassigned) [Example I-1-a-7] | 100 | 100 |  | 100 | 90 |  | 100 | 100 | 100 | 
8 | CC(=O)OC1=C(c2c(C)cc(Cl)cc2Cl)C(=O)NC12CCC(C)CC2 (single isomer, unassigned) [Example I-1-b-10] | 100 |  |  | 100 | 100 | 20 | 100 | 100 | 100 | 
9 | Cc1cc(Cl)cc(Cl)c1C1=C(O)C2(CCCC(C)C2)NC1=O (single isomer, unassigned) [Example I-1-a-2] | 100 |  | 100 | 100 | 90 | 0 | 100 |  |  | 
10 | Cc1cc(Cl)c(C2=C(O)C3(CCOCC3)NC2=O)c(Cl)c1 [Example I-1-a-10] |  |  | 100 |  |  |  |  |  | 100 | 
11 | Cc1cc(Cl)cc(Cl)c1C1=C(O)C2(CCCCC2)SC1=O [Example I-3-a-3] |  | 100 | 100 |  |  |  |  |  |  | 
12 | Cc1cc(Cl)cc(Cl)c1C1=C(OC(=O)C(C)C)C2(CCC(C)CC2)NC1=O (single isomer, unassigned) [Example I-1-b-11] |  |  |  | 95 | 40 | 30 | 100 | 90 |  | 
13 | Cc1cc(Cl)c(C2=C(OC(=O)OCC(C)C)C3(CCCCC3)SC2=O)c(Cl)c1 [Example I-3-c-1] |  |  |  |  |  | 0 |  |  | 100 | 70
14 | COCC(C)C(=O)OC1=C(c2c(C)cc(Cl)cc2Cl)C(=O)NC12CCC(C)CC2 (single isomer, unassigned) [Example I-1-b-13] |  |  |  | 100 | 80 | 30 | 100 | 90 |  | 
15 | Cc1cc(Cl)c(C2=C(OC(=O)C(C)C)C3(CCCC(C)C3)NC2=O)c(Cl)c1 (single isomer, unassigned) [Example I-1-b-20] |  |  |  | 95 |  | 30 | 90 | 80 |  | 
16 | CCOC(=O)OC1=C(c2c(Cl)cc(C)cc2Cl)C(=O)NC12CCC(C)CC2 (single isomer, unassigned) [Example I-1-c-6] |  |  |  | 100 | 100 |  | 100 | 95 |  | 
17 | Cc1cc(Cl)c(C2=C(O)C(C)(C(C)C)NC2=O)c(Cl)c1 (centres unmarked) [Example I-1-a-11] | 100 |  | 100 |  |  |  |  |  |  | 
18 | Cc1cc(Cl)cc(Cl)c1C1=C(O)C2(CCCCC2)NC1=O [Example I-1-a-3] | 100 | 100 |  | 100 |  | 0 | 100 | 80 |  | 
19 | CC(=O)OC1=C(c2c(C)cc(Cl)cc2Cl)C(=O)NC12CCCC(C)C2 (single isomer, unassigned) [Example I-1-b-2] |  | 100 |  | 100 | 80 | 0 | 100 | 70 |  | 
20 | CCOC(=O)OC1=C(c2c(C)cc(Cl)cc2Cl)C(=O)NC12CCCCC2 [Example I-1-c-3] | 100 |  |  | 80 | 80 | 30 | 100 | 100 |  | 
21 | CCOC(=O)OC1=C(c2c(C)cc(Cl)cc2Cl)C(=O)NC12CCC(C)CC2 (single isomer, unassigned) [Example I-1-c-4] | 100 |  |  | 100 | 100 | 50 | 100 | 100 | 100 | 
22 | Cc1cc(Cl)c(-c2c(O)c(C)c(C3CCCC3)oc2=O)c(Cl)c1 [I-5-a-7] |  |  |  | 80 |  | 0 |  | 95 |  | 
23 | CCOCC(=O)OC1=C(c2c(C)cc(Cl)cc2Cl)C(=O)NC12CCCC(C)C2 (single isomer, unassigned) [Example I-1-b-4] |  |  |  | 95 | 80 | 0 | 100 | 80 |  | 
24 | Cc1cc(Cl)c(C2=C(OC(=O)C(C)(C)C)C3(CCCCC3)SC2=O)c(Cl)c1 [Example I-3-b-1] | 100 | 100 |  |  |  |  |  |  | 100 | 
25 | CCOC(=O)OC1=C(c2c(C)cc(Cl)cc2Cl)C(=O)NC12CCCC(C)C2 (single isomer, unassigned) [Example I-1-c-2] |  | 100 |  |  |  |  |  |  |  | 
26 | Cc1cc(Cl)cc(Cl)c1C1=C(O)C2(CCC(C)CC2)NC1=O (single isomer, unassigned) [Example I-1-a-4] | 100 | 100 |  | 100 | 100 | 0 | 100 | 95 |  | 
27 | Cc1cc(Cl)cc(Cl)c1C1=C(OC(=O)c2ccc(Cl)cc2)C2(CCC(C)CC2)NC1=O (single isomer, unassigned) [Example I-1-b-12] |  |  |  | 100 | 80 | 20 | 100 | 95 |  | 
28 | Cc1cc(Cl)c(C2=C(O)C3(CCCCC3)SC2=O)c(Cl)c1 [Example I-3-a-2] | 100 |  | 100 |  |  | 0 |  |  | 100 | 60
